In ChEMBL document CHEMBL1201862, “PubChem BioAssay data set” (2004):
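1) Cells in 96-well plates. 2) Compound, 48 h, 5 concentrations. 3) Linear interpolation between surrounding doses. 4) Unreached endpoint = highest concentration. Here, GI50 denotes the concentration required for 50% inhibition of growth.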 Activity calls are given as the source filed them. Cut-off read from the data, not from the text of the source: active = GI50 up to about 1.1 µM and inactive = higher.

Tests used:
Test in all cases: growth of human tumour cells (NCI), 48 h
M14 = tested on: M14
RXF 393 = tested on: RXF 393
SNB-19 = tested on: SNB-19
OVCAR-4 = tested on: OVCAR-4
A498 = tested on: A498
UO-31 = tested on: UO-31
DMS-273 = tested on: DMS-273
NCI-H23 = tested on: NCI-H23
M19-MEL = tested on: M19-MEL
NCI-H522 = tested on: NCI-H522
SK-OV-3 = tested on: SK-OV-3
786-0 = tested on: 786-0
HCC 2998 = tested on: HCC 2998
IGROV-1 = tested on: IGROV-1
CAKI-1 = tested on: CAKI-1
COLO 205 = tested on: COLO 205
HCT-116 = tested on: HCT-116
SNB-78 = tested on: SNB-78
HCT-15 = tested on: HCT-15
A549 = tested on: A549
LXFL 529 = tested on: LXFL 529
TK-10 = tested on: TK-10
KM12 = tested on: KM12
SK-MEL-2 = tested on: SK-MEL-2
SN12C = tested on: SN12C
SNB-75 = tested on: SNB-75
Malme-3M = tested on: Malme-3M
SF-539 = tested on: SF-539
ACHN = tested on: ACHN
HOP-92 = tested on: HOP-92
OVCAR-8 = tested on: OVCAR-8
HOP-18 = tested on: HOP-18
RPMI-8226 = tested on: RPMI-8226
LOX IMVI = tested on: LOX IMVI
SK-MEL-28 = tested on: SK-MEL-28
SK-MEL-5 = tested on: SK-MEL-5
SF-268 = tested on: SF-268
UACC-62 = tested on: UACC-62
HOP-62 = tested on: HOP-62
OVCAR-3 = tested on: OVCAR-3
OVCAR-5 = tested on: OVCAR-5
UACC-257 = tested on: UACC-257
CCRF-CEM = tested on: CCRF-CEM
MOLT-4 = tested on: MOLT-4
NCI-H226 = tested on: NCI-H226
EKVX = tested on: EKVX
U-251 = tested on: U-251
KM-20L2 = tested on: KM-20L2
NCI-H460 = tested on: NCI-H460
SW-620 = tested on: SW-620
DLD-1 = tested on: DLD-1
HT-29 = tested on: HT-29
HL-60 = tested on: HL-60
XF498 = tested on: XF498
SF-295 = tested on: SF-295
SR = tested on: SR
K562 = tested on: K562
DMS-114 = tested on: DMS-114

N=S(c1ccccc1[N+](=O)[O-])c1ccccc1[N+](=O)[O-]
GI50 (M14): 2.09 µM (inactive)
GI50 (RXF 393): 4.06 µM (inactive)
GI50 (SNB-19): 8.07 µM (inactive)
GI50 (OVCAR-4): 0.553 µM (active)
GI50 (A498): 16.6 µM (inactive)
GI50 (UO-31): 3.08 µM (inactive)
GI50 (DMS-273): 3.05 µM (inactive)
GI50 (NCI-H23): 5.26 µM (inactive)
GI50 (M19-MEL): 2.43 µM (inactive)
GI50 (NCI-H522): 0.561 µM (active)
GI50 (SK-OV-3): 6.27 µM (inactive)
GI50 (786-0): 1.95 µM (inactive)
GI50 (HCC 2998): 5.32 µM (inactive)
GI50 (IGROV-1): 2.34 µM (inactive)
GI50 (CAKI-1): 3.3 µM (inactive)
GI50 (COLO 205): 1.95 µM (inactive)
GI50 (HCT-116): 1.5 µM (inactive)
GI50 (SNB-78): 2.52 µM (inactive)
GI50 (HCT-15): 1.62 µM
GI50 (A549): 6.67 µM (inactive)
GI50 (LXFL 529): 2.22 µM (inactive)
GI50 (TK-10): 2.69 µM (inactive)
GI50 (KM12): 6.65 µM (inactive)
GI50 (SK-MEL-2): 4.84 µM (inactive)
GI50 (SN12C): 1.72 µM (inactive)
GI50 (SNB-75): 6.34 µM (inactive)
GI50 (Malme-3M): 3.26 µM (inactive)
GI50 (SF-539): 4.58 µM (inactive)
GI50 (ACHN): 1.77 µM (inactive)
GI50 (HOP-92): 1.98 µM (inactive)
GI50 (OVCAR-8): 3.65 µM (inactive)
GI50 (HOP-18): 5.3 µM (inactive)
GI50 (RPMI-8226): 2.08 µM (inactive)
GI50 (LOX IMVI): 0.944 µM (active)
GI50 (SK-MEL-28): 3.7 µM (inactive)
GI50 (SK-MEL-5): 3.2 µM (inactive)
GI50 (SF-268): 2.37 µM (inactive)
GI50 (UACC-62): 4.34 µM (inactive)
GI50 (HOP-62): 5.96 µM (inactive)
GI50 (OVCAR-3): 1.5 µM (inactive)
GI50 (OVCAR-5): 6.08 µM (inactive)
GI50 (UACC-257): 2.54 µM (inactive)
GI50 (CCRF-CEM): 0.687 µM (active)
GI50 (MOLT-4): 2.61 µM (inactive)
GI50 (NCI-H226): 5.6 µM (inactive)
GI50 (EKVX): 7.73 µM (inactive)

CC(C)(C)C1=NO[C@H]2[C@@H](NC(=O)c3ccccc3)CC[C@@H]12
GI50 (M14): > 100 µM (inactive)
GI50 (RXF 393): > 100 µM (inactive)
GI50 (SNB-19): > 100 µM (inactive)
GI50 (OVCAR-4): > 100 µM (inactive)
GI50 (UO-31): > 100 µM (inactive)
GI50 (U-251): > 100 µM (inactive)
GI50 (NCI-H23): > 100 µM (inactive)
GI50 (M19-MEL): > 100 µM (inactive)
GI50 (NCI-H522): > 100 µM (inactive)
GI50 (KM-20L2): > 100 µM (inactive)
GI50 (SK-OV-3): > 100 µM (inactive)
GI50 (NCI-H460): > 100 µM (inactive)
GI50 (786-0): > 100 µM (inactive)
GI50 (HCC 2998): > 100 µM (inactive)
GI50 (SW-620): > 100 µM (inactive)
GI50 (IGROV-1): > 100 µM (inactive)
GI50 (CAKI-1): > 100 µM (inactive)
GI50 (COLO 205): > 100 µM (inactive)
GI50 (HCT-116): > 100 µM (inactive)
GI50 (DLD-1): > 100 µM (inactive)
GI50 (HT-29): > 100 µM (inactive)
GI50 (SNB-78): > 100 µM (inactive)
GI50 (HCT-15): > 100 µM
GI50 (A549): > 100 µM (inactive)
GI50 (LXFL 529): > 100 µM (inactive)
GI50 (TK-10): > 100 µM (inactive)
GI50 (HL-60): > 100 µM (inactive)
GI50 (KM12): > 100 µM (inactive)
GI50 (SN12C): > 100 µM (inactive)
GI50 (SNB-75): 38.3 µM (inactive)
GI50 (Malme-3M): > 100 µM (inactive)
GI50 (XF498): > 100 µM (inactive)
GI50 (SF-539): > 100 µM (inactive)
GI50 (SF-295): > 100 µM (inactive)
GI50 (SR): > 100 µM (inactive)
GI50 (ACHN): > 100 µM (inactive)
GI50 (HOP-92): 98.2 µM (inactive)
GI50 (K562): > 100 µM (inactive)
GI50 (DMS-114): > 100 µM (inactive)
GI50 (OVCAR-8): > 100 µM (inactive)
GI50 (RPMI-8226): > 100 µM (inactive)
GI50 (LOX IMVI): > 100 µM (inactive)
GI50 (SK-MEL-28): > 100 µM (inactive)
GI50 (SK-MEL-5): > 100 µM (inactive)
GI50 (SF-268): > 100 µM (inactive)
GI50 (UACC-62): > 100 µM (inactive)
GI50 (HOP-62): > 100 µM (inactive)
GI50 (OVCAR-3): > 100 µM (inactive)
GI50 (OVCAR-5): > 100 µM (inactive)
GI50 (UACC-257): > 100 µM (inactive)
GI50 (CCRF-CEM): > 100 µM (inactive)
GI50 (MOLT-4): > 100 µM (inactive)
GI50 (NCI-H226): > 100 µM (inactive)

CC(=O)OC(C)(C)C[N+](=O)[O-]
GI50 (M14): > 100 µM (inactive)
GI50 (RXF 393): > 100 µM (inactive)
GI50 (SNB-19): > 100 µM (inactive)
GI50 (OVCAR-4): 20 µM (inactive)
GI50 (UO-31): > 100 µM (inactive)
GI50 (DMS-273): > 100 µM (inactive)
GI50 (U-251): > 100 µM (inactive)
GI50 (NCI-H23): > 100 µM (inactive)
GI50 (M19-MEL): > 100 µM (inactive)
GI50 (NCI-H522): 63.4 µM (inactive)
GI50 (KM-20L2): > 100 µM (inactive)
GI50 (SK-OV-3): > 100 µM (inactive)
GI50 (NCI-H460): > 100 µM (inactive)
GI50 (786-0): > 100 µM (inactive)
GI50 (HCC 2998): > 100 µM (inactive)
GI50 (SW-620): > 100 µM (inactive)
GI50 (IGROV-1): > 100 µM (inactive)
GI50 (CAKI-1): > 100 µM (inactive)
GI50 (COLO 205): > 100 µM (inactive)
GI50 (HCT-116): > 100 µM (inactive)
GI50 (DLD-1): > 100 µM (inactive)
GI50 (HT-29): > 100 µM (inactive)
GI50 (HCT-15): > 100 µM
GI50 (A549): > 100 µM (inactive)
GI50 (LXFL 529): > 100 µM (inactive)
GI50 (TK-10): > 100 µM (inactive)
GI50 (HL-60): 26 µM (inactive)
GI50 (KM12): > 100 µM (inactive)
GI50 (SK-MEL-2): > 100 µM (inactive)
GI50 (SN12C): > 100 µM (inactive)
GI50 (SNB-75): > 100 µM (inactive)
GI50 (Malme-3M): > 100 µM (inactive)
GI50 (SF-539): > 100 µM (inactive)
GI50 (SF-295): > 100 µM (inactive)
GI50 (SR): > 100 µM (inactive)
GI50 (ACHN): > 100 µM (inactive)
GI50 (HOP-92): > 100 µM (inactive)
GI50 (K562): > 100 µM (inactive)
GI50 (DMS-114): > 100 µM (inactive)
GI50 (OVCAR-8): > 100 µM (inactive)
GI50 (RPMI-8226): > 100 µM (inactive)
GI50 (LOX IMVI): > 100 µM (inactive)
GI50 (SK-MEL-28): > 100 µM (inactive)
GI50 (SF-268): > 100 µM (inactive)
GI50 (HOP-62): > 100 µM (inactive)
GI50 (OVCAR-3): > 100 µM (inactive)
GI50 (OVCAR-5): > 100 µM (inactive)
GI50 (UACC-257): > 100 µM (inactive)
GI50 (CCRF-CEM): > 100 µM (inactive)
GI50 (MOLT-4): > 100 µM (inactive)
GI50 (NCI-H226): > 100 µM (inactive)
GI50 (EKVX): > 100 µM (inactive)

COc1cc(C2c3cc4c(cc3[C@@H](NCCN3CCOCC3)C3COC(=O)[C@H]23)OCO4)cc(OC)c1O (some centres undefined)
GI50 (M14): 3.98 µM (inactive)
GI50 (RXF 393): 2.9 µM (inactive)
GI50 (SNB-19): 4.89 µM (inactive)
GI50 (OVCAR-4): > 17.5 µM (inactive)
GI50 (UO-31): 2.94 µM (inactive)
GI50 (DMS-273): 0.805 µM (active)
GI50 (U-251): 1.26 µM (inactive)
GI50 (NCI-H522): 3.16 µM (inactive)
GI50 (KM-20L2): 5.2 µM (inactive)
GI50 (786-0): 2.1 µM (inactive)
GI50 (HCC 2998): 2.44 µM (inactive)
GI50 (SW-620): 2.08 µM (inactive)
GI50 (IGROV-1): 5.52 µM (inactive)
GI50 (CAKI-1): 2.08 µM (inactive)
GI50 (HCT-116): 2.86 µM (inactive)
GI50 (DLD-1): 5.45 µM (inactive)
GI50 (HT-29): 5.73 µM (inactive)
GI50 (SNB-78): > 17.5 µM (inactive)
GI50 (HCT-15): 2.81 µM
GI50 (LXFL 529): > 17.5 µM (inactive)
GI50 (TK-10): 5.56 µM (inactive)
GI50 (KM12): 4.01 µM (inactive)
GI50 (SK-MEL-2): 4.89 µM (inactive)
GI50 (Malme-3M): 3.76 µM (inactive)
GI50 (SF-539): 0.993 µM (active)
GI50 (SF-295): 2.49 µM (inactive)
GI50 (HOP-92): 1.31 µM (inactive)
GI50 (K562): 3.01 µM (inactive)
GI50 (OVCAR-8): 3.05 µM (inactive)
GI50 (HOP-18): 4.52 µM (inactive)
GI50 (LOX IMVI): 1.77 µM (inactive)
GI50 (SK-MEL-28): 3.66 µM (inactive)
GI50 (SF-268): 2.06 µM (inactive)
GI50 (UACC-62): 2.09 µM (inactive)
GI50 (HOP-62): 0.782 µM (active)
GI50 (OVCAR-3): 4.13 µM (inactive)
GI50 (UACC-257): 4.4 µM (inactive)
GI50 (EKVX): 16.4 µM (inactive)
